According to BindingDB's records for doi:10.1016/s0960-894x(00)00348-6 (Smithkline Beecham Pharmaceuticals, 2000):
pIC50: −log10 of the molar value.

Molecular target: Tyrosyl-tRNA synthetase (Staphylococcus aureus)
Experiment: Inhibitory activity of compound against tyrosyl tRNA synthetase from Staphylococcus aureus was determined

- pIC50: 7.68
SMILES: N[C@@H](Cc1ccc(O)cc1)C(=O)N[C@@H](C(=O)O)[C@H]1[C@H](O)[C@@H](O)[C@@H](O)CN1O [(R)-[(S)-2-Amino-3-(4-hydroxy-phenyl)-propionylamino]-((2S,3S,4S,5S)-1,3,4,5-tetrahydroxy-piperidin-2-yl)-acetic acid]
